Test results taken from patent US12338251B2, “Substituted macrocycles useful as kinase inhibitors” (TELIGENE LTD, priority 2019, dated 2025).
In brackets after ≈: the same amount, converted by molar mass.

Experiments:
[1] = system: BaF3-SLC34A2-ROS1 cell line xenograft; experiment: In vivo xenograft assay, subcutaneous BaF3-SLC34A2-ROS1 in nude mice; design: species or system Balb/c nude mice; conditions: 5 mg/kg oral gavage once daily; for Tumor weight at Day 20: nude mice, control 2.118 g
Text: A representative protocol for the in vivo experiment is as followed to establish the subcutaneous BaF3—SLC34A2-ROS1 cell line xenograft model in nude mice and to evaluate the in vivo therapeutic efficacy of the compounds:
Animals: Male Balb/c nude mice (6˜8 weeks old) were obtained from SLAC Laboratory Animal, Shanghai, China. Animals were maintained under SPF conditions in sterile filter top cages and housed on HEPA-filtered ventilated racks. Animals received sterile rodent chow and water ad libitum.
Cell line: BaF3—SLC34A2-ROS1, S.C.
Xenograft Models in Athymic Mice: Cells for implantation into athymic mice were harvested and pelleted by centrifugation at 1200 r/min for 5 min. Cells were washed once and resuspended in sterile PBS buffer with 5×10^6 in 200 μl. Then cells were implanted s.c. into the right scapular region of each mouse and allowed to grow to 200-300 mm^3 before the administration of compound.
Preparation of the Dose Formulation: each compound was suspended in 0.5% sodium carboxymethyl cellulose (CMC-Na). […]
Observations: After inoculation, the animals are checked daily for morbidity and mortality. At the time of routine monitoring, the animals are checked for any effects of tumor growth and treatments on normal behavior such as mobility, body weight gain/loss (body weights are measured twice weekly or every other day), eye/hair matting and any other abnormal effect. Death and observed clinical signs are recorded on the basis of the numbers of animals within each subset.
Tumor Size Measurements: Tumor volume was determined by measurement with electronic vernier calipers every 3 days and tumor volume was calculated as the product of its length×width2×0.5. […]
Percentage (%) inhibition values were measured for drug-treated mice compared with vehicle-treated mice and are calculated as follows: Tumor growth inhibition (TGI, %)=100−[MTV treated/MTV control]×100, where MTV is the median tumor volume. Significant differences between the treated versus the control groups (p<0.05) were determined using t test. […]

[2] = Solubility measurement (HPLC); assay type: physicochemical; conditions: for solubility at 30 min: pH 7.0 buffer solution (20 mM), aqueous buffer, thermodynamic from solid
Description: Preparation of reference standard solution: 2 mg of Compound was added individually to 100 mL volumetric flask each. The compound was diluted with acetonitrile to 100 mL.
Preparation of sample solution: 2 mg of Compound was added individually to 2 mL eppendorf tube (EP), followed by addition of 1 mL of pH 7.0 or 10.0 buffer solution (20 mM). The solution was shaken for 2 minutes and left for 30 minutes at 25° C. After standing for 30 minutes, precipitate was formed in the bottom of the EP. The solutions were filtered through a 0.2 um membrane filter, and then diluted by 50 times with water.
The standard and sample solutions were injected into the HPLC on a Shim-Pack CLC-ODS C18 column (150 mm×6.0 mm, 5 μm) with the same volume. The mobile phase consisted of acetonitrile with 2% trichloromethane—20 mM KH2PO4 buffer (pH=7.0) at a flow rate of 1 mL/minute (40:60). The detection wavelength is at 264 nm. Calculation: solubility of sample=the concentration of standard×Area of sample×50/Area of standard.

[3] = One-month toxicity studies in rats; assay type: in vivo; conditions: 8 mg/kg/day females and 16 mg/kg/day males
[4] = Stability test for one month, purity by HPLC; assay type: physicochemical; conditions: HPLC purity after 30 days at 0° C.
CYP 3A4 = CYP 3A4 (Homo sapiens (Human), UniProt P08684); experiment: P450 3A4 assay in human liver microsomes (CYP inhibition); assay type: in vitro ADME; conditions: for IC50: testosterone probe substrate
Description: The final concentrations of DMSO and acetonitrile were equal to or less than 0.1%.
The column temperature was maintained at ambient temperature (25° C.). […] The flow rate was maintained at 0.6 mL/min.

Ba/F3 EML4-ALK-L1196M = experiment: Cell proliferation assay (CTG), Ba/F3 EML4-ALK-L1196M; assay type: cell-based; conditions: 72 hours
Description: (§1) A Representative Number of Compounds were Assayed Against BAF3 Cell Lines Using the Cell Proliferation Assays:
(§2) Cell Culture and Inoculation:
(§3) 1. Cells in logarithmic growth phase were harvested and counted by platelet counter. Trypan blue exclusion method was used to detect the cell viability to ensure that the cell viability was above 90%.
(§4) 2. Adjust the cell concentration; 90 μL cell suspension was added to 96 well plates respectively.
(§5) 3. Cells in 96-well plate were cultured overnight at 37° C., 5% CO2 and 95% of humidity.
(§6) Drug Dilution and Dosing:
(§7) 1. Prepare 10-fold drug solution with the highest concentration of 100 μM, 9 concentrations and 3.16-fold dilution. Add 10 μL of drug solution to each well of 96-well plate inoculated with cells, and set up 3 duplicate wells for each drug concentration.
(§8) 2. Cells in 96-well plates with drug added were cultured for 72 hours at 37° C., 5% CO2 and 95% of humidity, and then […]-GLO® (CTG) analysis was performed.
(§9) 1. Melt CTG reagent and equilibrate cell plates to room temperature for 30 minutes.
2. […]
(§10) 5. Read the cold light value.
(§11) The data were analyzed by GraphPad Prism 5.0 software, and the dose-effect curve was obtained by fitting the data by nonlinear S-curve regression, and IC50 value was calculated accordingly.
(§12) Cell survival rate (%)=(Lumdrug to be tested−Lumculture solution control)/(Lumcell control−Lumculture solution control)×100%. Lum is luminescence. […]

Ba/F3 EML4-ALK-WT = experiment: Cell proliferation assay (CTG), Ba/F3 EML4-ALK-WT; assay type: cell-based; conditions: Mus musculus, BaF3, 72 hours
Description: as §1, §2, §3, §4, §5, §6, §7, §8, §9
2. […]
as §10, §11, §12

[5] = Stability test for one month, purity by HPLC; assay type: physicochemical; conditions: for Day 30 at 25° C. (purity): HPLC purity after 30 days at 25° C.; for Day 0 (purity): HPLC purity, baseline of stability test
Description: Stability test: The compounds were tested for their stability at 25° C. for one month, using HPLC to measure the purity. […] Compound 2 is not stable at −30° C. […] (Table F).

[6] = PK study (bioavailability); assay type: in vivo; conditions: rats; 1 mg/kg IV and 10 mg/kg orally; parent compound plus major metabolites
Description: A representative protocol for the PK (pharmacokinetic) assay was as followed: Compounds were given either IV or orally to the same animals. The dose for each compound was 1 mg/kg (volume 5 ml/kg) IV and 10 mg/kg (volume 10 ml/kg) orally. The formulation for IV was in 10% SOLUTOL® HS 15+90% Phosphate-Buffered Saline at […]. A 100% (0.5% Tween 80 in 0.5% methylcellulose (MC) in water) at […] suspension was used for the oral formulation. Sample collection: for the IV route, plasma samples were collected at the time points of 0.083, 0.25, 0.5, 1, 2, 4, 8 and 24 hr. For the oral route, plasma samples were collected at the time points of 0.25, 0.5, 1, 2, 4, 8 and 24 hr. Total bioavailability is calculated by adding parent compound and major metabolites. Analysis: LC-MS/MS was used to calculate PK parameters: t1/2, tmax, Cmax, Vss and AUC, etc.
The following Table E lists selected compounds and their bioavailability (F).
Compound 3 and 4 have much improved bioavailability (F=100%).

Chain of CYP 3A4 (P08684 whole entry): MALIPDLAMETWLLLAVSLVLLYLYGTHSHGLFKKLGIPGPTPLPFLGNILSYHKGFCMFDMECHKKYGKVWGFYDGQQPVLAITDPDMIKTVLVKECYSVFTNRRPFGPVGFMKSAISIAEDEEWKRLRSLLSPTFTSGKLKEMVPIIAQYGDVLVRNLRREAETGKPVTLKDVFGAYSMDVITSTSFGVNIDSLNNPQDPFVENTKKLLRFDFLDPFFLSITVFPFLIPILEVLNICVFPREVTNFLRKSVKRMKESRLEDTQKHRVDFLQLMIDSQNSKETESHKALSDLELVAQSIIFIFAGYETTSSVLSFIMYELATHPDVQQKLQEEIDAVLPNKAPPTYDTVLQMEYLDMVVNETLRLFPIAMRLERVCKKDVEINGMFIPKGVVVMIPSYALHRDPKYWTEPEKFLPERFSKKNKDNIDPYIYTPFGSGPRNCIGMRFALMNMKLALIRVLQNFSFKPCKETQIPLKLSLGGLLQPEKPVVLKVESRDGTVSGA

SMILES | Tumor weight at Day 20 [1] [g] | solubility at 30 min ([2]; pH 7.0 buffer (20 mM), 25° C.) [µg/mL] | Day 30 at 0° C. (purity) [4] [%] | IC50 (CYP 3A4) [µM] | Stability at 0° C. or 25° C. (in words) ([5]; one month) | Day 30 at 25° C. (purity) [5] [%] | Day 0 (purity) [5] [%] | other results
C[C@H]1Oc2cc(cnc2N)-c2c(nn(C)c2C#N)CN(C)C(=O)c2ccc(F)cc21 [Lorlatinib, reference compound] | 0.531 | 29 (≈ 71.4 µM) |  |  |  |  |  | Prothrombin time [3]: shorten time; #LYMPH and Red blood cell in blood ([3]; end of administration and recovery periods): decreased
CC(=O)NCC(=O)Nc1ncc2cc1O[C@H](C)c1cc(F)ccc1C(=O)N(C)Cc1nn(C)c(C#N)c1-2 [Compound 3] | 0.327 | 772 (≈ 1530 µM) | 99.18 | 279 | no significant changes | 99.16 | 99.24 | CYP 3A4 inhibition (in words) (CYP 3A4; compared with Lorlatinib and Compound 2): much weaker inhibition; IC50 (Ba/F3 EML4-ALK-L1196M): 0.051 µM; IC50 (Ba/F3 EML4-ALK-WT): 0.0028 µM; Tumor growth inhibition at day 20 (in words) ([1]; compared with Lorlatinib): significant better tumor growth inhibition; Solubility at pH=7.0 (in words) ([2]; compared with compound 2 and Lorlatinib): much higher solubility
CCOC(=O)NCC(=O)Nc1ncc2cc1O[C@H](C)c1cc(F)ccc1C(=O)N(C)Cc1nn(C)c(C#N)c1-2 [Compound 5] |  |  | 99.01 |  | no significant changes | 99.05 | 99.05 | 
C[C@H]1Oc2cc(cnc2NC(=O)CN)-c2c(nn(C)c2C#N)CN(C)C(=O)c2ccc(F)cc21 [Compound 2, reference compound] |  |  | 92.58 | 10 |  | 86.14 | 97.28 | Solubility at pH 7.0 ([2]; pH 7.0 buffer (20 mM), 25° C.): 0.091 mg/mL; Stability at 25° C. (in words) ([5]; 25° C., one month): decomposed significantly; Major impurity A at Day 0 ([5]; HPLC, Day 0): 1.13%; Major impurity B at Day 0 ([5]; HPLC, Day 0): 1.39%; Major impurity A at Day 30 ([5]; HPLC, Day 30 at 25° C.): 3.98%; Major impurity B at Day 30 ([5]; HPLC, Day 30 at 25° C.): 8.34%; Stability at −30° C. (in words) ([5]; −30° C.): not stable; Total F (%) (oral bioavailability) [6]: 49%
COC(=O)NCC(=O)Nc1ncc2cc1O[C@H](C)c1cc(F)ccc1C(=O)N(C)Cc1nn(C)c(C#N)c1-2 [Compound 4] |  |  | 97.13 |  | no significant changes | 97.25 | 97.23 | 
